pIC50: −log10 of the molar value.
What follows are molecules tested against T1, myeloperoxidase (MPO) (Homo sapiens, UniProt P05164) (assay: MPO peroxidation assay (Amplex Red assay)). Conditions: not given.
T1 sequence (P05164 49-745): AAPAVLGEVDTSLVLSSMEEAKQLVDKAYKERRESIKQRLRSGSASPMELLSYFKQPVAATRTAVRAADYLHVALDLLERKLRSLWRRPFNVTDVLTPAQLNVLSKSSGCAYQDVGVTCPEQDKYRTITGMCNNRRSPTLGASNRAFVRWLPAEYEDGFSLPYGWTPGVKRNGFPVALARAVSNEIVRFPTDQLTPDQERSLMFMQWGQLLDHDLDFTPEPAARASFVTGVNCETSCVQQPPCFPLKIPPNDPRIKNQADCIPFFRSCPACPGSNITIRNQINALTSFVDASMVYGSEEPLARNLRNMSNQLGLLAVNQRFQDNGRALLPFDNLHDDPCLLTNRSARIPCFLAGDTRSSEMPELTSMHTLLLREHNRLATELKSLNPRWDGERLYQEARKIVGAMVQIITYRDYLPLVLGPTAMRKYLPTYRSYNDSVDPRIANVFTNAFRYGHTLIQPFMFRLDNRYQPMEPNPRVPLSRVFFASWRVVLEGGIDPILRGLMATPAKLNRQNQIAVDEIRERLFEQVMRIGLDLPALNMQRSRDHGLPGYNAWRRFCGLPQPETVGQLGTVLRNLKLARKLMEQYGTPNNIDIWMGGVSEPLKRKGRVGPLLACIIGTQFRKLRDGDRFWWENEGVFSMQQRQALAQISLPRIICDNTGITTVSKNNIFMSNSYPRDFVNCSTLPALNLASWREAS
Assay type: biochemical
Protocol: MPO Peroxidation Assay (Amplex Red Assay)
MPO peroxidation activity was measured in 100 mM KPi (pH 7.4) by utilizing the non-fluorescent reagent Amplex Red (Invitrogen catalog # A12222) which can be oxidized to the highly fluorescent resorufin. Amplex Red is oxidized by the peroxidase action of MPO to resorufin. Reactions were carried out in 50 μL total volume by adding a 25 μL mixture of 200 pM myeloperoxidase and 40 nM H2O2(Sigma #349887) to 100 nL inhibitor in 100% DMSO in a 384 well Perkin Elmer Optiplate. Enzyme and compound were preincubated for ten minutes at room temperature.
After the ten minute preincubation, 25 μL of an Amplex Red mixture containing 200 μM Amplex Red and 10 mM H2O2 was added to the plate. Kinetic determinations were carried out immediately on a Perkin Elmer Envision (15 minute kinetic read, Ex: 535 nm, Em: 590 nm).
IC50 values were calculated by determining the slope of the linear portion of the kinetic trace ([…]), and using that calculated slope to determine % inhibition occurring at each concentration of inhibitor using the following equation:
[formula] where A=minimal Y value (activity level of inhibited sample), B=maximal Y value (activity level of uninhibited sample), C=Log IC50, D=Hill Slope, x=concentration of inhibitor. MPO Chlorination Assay (APF Assay)

pIC50 | Compound
6.00 to 7.00 | Nc1cc(OCc2ccccc2-n2cccn2)c2nn[nH]c2n1 [Example 255, 7-((2-(1H-Pyrazol-1-yl)benzyl)oxy)-3H-[1,2,3]triazolo[4,5-b]pyridin-5-amine]
7.00 to 9.00 | Cc1c(COc2cc(N)nc3[nH]nnc23)cccc1-c1cccc(F)c1 [Example 68, 7-((3′-Fluoro-2-methylbiphenyl-3-yl)methoxy)-3H-[1,2,3]triazolo[4,5-b]pyridin-5-amine]

Same assay, conditions: MPO peroxidation, potency range class; read-out: Amplex Red IC50

pIC50 | Compound
7.00 to 9.00 | N#Cc1cc(-c2ccc(O)nc2)ccc1COc1cc(N)nc2[nH]nnc12 [Example 312, 2-(((5-amino-3H-[1,2,3]triazolo[4,5-b]pyridin-7-yl)oxy)methyl)-5-(6-hydroxypyridin-3-yl)benzonitrile]
6.00 to 7.00 | COc1ccc(-c2ccc(COc3cc(N)nc4[nH]nnc34)cc2)cc1F [Example 108, 7-((3′-Fluoro-4′-methoxybiphenyl-4-yl)methoxy)-3H-[1,2,3]triazolo[4,5-b]pyridin-5-amine]
7.00 to 9.00 | COc1c(COc2cc(N)nc3[nH]nnc23)cccc1C(F)(F)F [Example 26]
6.00 to 7.00 | CC1CC(c2ccccc2)CCC1COc1cc(N)nc2[nH]nnc12 (centres unmarked) [Example 53, 7-((2-Methyl-4-phenylcyclohexyl)methoxy)-3H-[1,2,3]triazolo[4,5-b]pyridin-5-amine]
7.00 to 9.00 | CN(C(=O)c1ccc(COc2cc(N)nc3[nH]nnc23)c(Cl)c1)c1ccccc1 [Example 203, 4-((5-amino-3H-[1,2,3]triazolo[4,5-b]pyridin-7-yloxy)methyl)-3-chloro-N-methyl-N-phenylbenzamide]
6.00 to 7.00 | CC(Oc1cc(N)nc2[nH]nnc12)c1ccccc1F (centres unmarked) [Example 140, 7-(1-(2-Fluorophenyl)ethoxy)-3H-[1,2,3]triazolo[4,5-b]pyridin-5-amine]
6.00 to 7.00 | N#Cc1cc(-n2cnc3ccccc32)ccc1COc1cc(N)nc2[nH]nnc12 [Example 274, 2-(((5-amino-3H-[1,2,3]triazolo[4,5-b]pyridin-7-yl)oxy)methyl)-5-(1H-benzo[d]imidazol-1-yl)benzonitrile]
7.00 to 9.00 | Nc1cc(OCc2ccc(-c3ccnc(O)c3)cc2OC(F)(F)F)c2nn[nH]c2n1 [Example 304, 4-(4-(((5-amino-3H-[1,2,3]triazolo[4,5-b]pyridin-7-yl)oxy)methyl)-3-(trifluoromethoxy)phenyl)pyridin-2-ol]
7.00 to 9.00 | Nc1cc(OCc2c(F)cc(-c3ccc(N4CCOCC4)nc3)cc2F)c2nn[nH]c2n1 [Example 335, 7-((2,6-difluoro-4-(6-morpholinopyridin-3-yl)benzyl)oxy)-3H-[1,2,3]triazolo[4,5-b] pyridin-5-amine]
7.00 to 9.00 | Nc1cc(OCc2cc(Cl)ccc2OCC2CCCO2)c2nn[nH]c2n1 (centres unmarked) [Example 89, 7-(5-Chloro-2-((tetrahydrofuran-2-yl)methoxy)benzyloxy)-3H-[1,2,3]triazolo[4,5-b]pyridin-5-amine]
7.00 to 9.00 | Nc1cc(OCc2cccc(Br)c2)c2nn[nH]c2n1 [Example 148, 7-(3-Bromobenzyloxy)-3H-[1,2,3]triazolo[4,5-b]pyridin-5-amine]
7.00 to 9.00 | Nc1cc(OCc2ccccc2OC(F)(F)F)c2nn[nH]c2n1 [Example 21, 7-(2-(Trifluoromethoxy)benzyloxy)-3H-[1,2,3]triazolo[4,5-b]pyridin-5-amine]
6.00 to 7.00 | NC(=O)c1cccc(COc2cc(N)nc3[nH]nnc23)c1Cl [Example 33, 3-((5-Amino-3H-[1,2,3]triazolo[4,5-b]pyridin-7-yloxy)methyl)-2-chlorobenzamide]
7.00 to 9.00 | Nc1cc(OCc2cccc(-c3ccc(NC(=O)c4ccccc4)cc3)c2)c2nn[nH]c2n1 [Example 100, N-(3′-((5-Amino-3H-[1,2,3]triazolo[4,5-b]pyridin-7-yloxy)methyl)biphenyl-4-yl)benzamide]
6.00 to 7.00 | Nc1cc(OCC2CCc3ccccc3C2)c2nn[nH]c2n1 (centres unmarked) [Example 51, 7-((1,2,3,4-Tetrahydronaphthalen-2-yl)methoxy)-3H-[1,2,3]triazolo[4,5-b]pyridin-5-amine]
7.00 to 9.00 | N#Cc1ccc(OC2CC2)cc1COc1cc(N)nc2[nH]nnc12 [Example 352, 2-(((5-amino-3H-[1,2,3]triazolo[4,5-b]pyridin-7-yl)oxy)methyl)-4-cyclopropoxybenzonitrile]
7.00 to 9.00 | Nc1cc(OCc2cccc(-n3cncn3)c2)c2nn[nH]c2n1 [Example 3, 7-(3-(1H-1,2,4-Triazol-1-yl)benzyloxy)-3H-[1,2,3]triazolo[4,5-b]pyridin-5-amine]
6.00 to 7.00 | Nc1cc(OCc2ccc(-c3ccccc3Cl)cc2)c2nn[nH]c2n1 [Example 109, 7-((2′-Chlorobiphenyl-4-yl)methoxy)-3H-[1,2,3]triazolo[4,5-b]pyridin-5-amine]
7.00 to 9.00 | N#Cc1cc(-c2ccc(C(F)(F)F)nc2)ccc1COc1cc(N)nc2[nH]nnc12 [Example 315, 2-(((5-amino-3H-[1,2,3]triazolo[4,5-b]pyridin-7-yl)oxy)methyl)-5-(6-(trifluoromethyl)pyridin-3-yl)benzonitrile]
7.00 to 9.00 | Nc1cc(OCc2ccc(-c3cccc(S(N)(=O)=O)c3)cc2OC(F)(F)F)c2nn[nH]c2n1 [Example 301, 4′-(((5-amino-3H-[1,2,3]triazolo[4,5-b]pyridin-7-yl)oxy)methyl)-3′-(trifluoromethoxy)-[1,1′-biphenyl]-3-sulfonamide]
7.00 to 9.00 | COc1ccc(-c2ccc(COc3cc(N)nc4[nH]nnc34)c(C#N)c2)cn1 [Example 310, 2-(((5-amino-3H-[1,2,3]triazolo[4,5-b]pyridin-7-yl)oxy)methyl)-5-(6-methoxypyridin-3-yl)benzonitrile]
7.00 to 9.00 | N#Cc1cc(-c2ccc(N)nc2)ccc1COc1cc(N)nc2[nH]nnc12 [Example 311, 2-(((5-amino-3H-[1,2,3]triazolo[4,5-b]pyridin-7-yl)oxy)methyl)-5-(6-aminopyridin-3-yl)benzonitrile]
7.00 to 9.00 | Nc1cc(OCc2c(F)ccc(-c3ccc(N4CCNCC4)nc3)c2Cl)c2nn[nH]c2n1 [Example 344, 7-((2-chloro-6-fluoro-3-(6-(piperazin-1-yl)pyridin-3-yl)benzyl)oxy)-3H-[1,2,3]triazolo [4,5-b]pyridin-5-amine]
6.00 to 7.00 | CC(=O)N[C@H]1CCN(C(=O)c2ccc(COc3cc(N)nc4[nH]nnc34)c(Cl)c2)C1 [Example 212, (S)-N-(1-(4-((5-amino-3H-[1,2,3]triazolo[4,5-b]pyridin-7-yloxy)methyl)-3-chlorobenzoyl)pyrrolidin-3-yl)acetamide]
6.00 to 7.00 | CS(=O)(=O)c1cncc(-c2ccc(COc3cc(N)nc4[nH]nnc34)c(OC(F)(F)F)c2)c1 [Example 294, 7-((4-(5-(methylsulfonyl)pyridin-3-yl)-2-(trifluoromethoxy)benzyl)oxy)-3H-[1,2,3] triazolo[4,5-b]pyridin-5-amine]
7.00 to 9.00 | CC1CN(c2ccc(-c3ccc(COc4cc(N)nc5[nH]nnc45)c(C#N)c3)cn2)CC(C)N1 (centres unmarked) [Example 350, 2-(((5-Amino-3H-[1,2,3]triazolo[4,5-b]pyridin-7-yl)oxy)methyl)-5-(6-(3,5-dimethylpiperazin-1-yl)pyridin-3-yl)benzonitrile]
6.00 to 7.00 | COc1cccc(-c2ccc(COc3cc(N)nc4[nH]nnc34)cc2)c1 [Example 112, 7-((3′-Methoxybiphenyl-4-yl)methoxy)-3H-[1,2,3]triazolo[4,5-b]pyridin-5-amine]
7.00 to 9.00 | CS(=O)(=O)c1cc(-n2ncc3ccccc32)ccc1COc1cc(N)nc2[nH]nnc12 [Example 282, 7-((4-(1H-indazol-1-yl)-2-(methylsulfonyl)benzyl)oxy)-3H-[1,2,3]triazol[4,5-b] pyridin-5-amine]
7.00 to 9.00 | COC(=O)c1ccc(F)c(COc2cc(N)nc3[nH]nnc23)c1 [Example 41, Methyl 3-((5-amino-3H-[1,2,3]triazolo[4,5-b]pyridin-7-yloxy)methyl)-4-fluorobenzoate]
7.00 to 9.00 | COc1ncc(-c2ccc(COc3cc(N)nc4[nH]nnc34)c(C#N)c2)cn1 [Example 314, 2-(((5-amino-3H-[1,2,3]triazolo[4,5-b]pyridin-7-yl)oxy)methyl)-5-(2-methoxypyrimidin-5-yl)benzonitrile]

From patent US10316035B2, “Triazolopyridine inhibitors of myeloperoxidase” (BRISTOL-MYERS SQUIBB COMPANY, priority 2015, dated 2019)
